Biological target: recombinant human MGAT2 (Homo sapiens (Human), UniProt Q3SYC2)
Assay: Measurement of human MGAT2 inhibitory activity
Format: biochemical
Conditions: concentration exhibiting 50% enzyme inhibition; recombinant human MGAT2, 2-Oleoylglycerol/Oleoyl-CoA
Experimental: A full-length human MGAT2 gene to which a Flag-tag had been added at the N-terminal was inserted into pFastBac (from Invitrogen). A recombinant baculovirus was produced in accordance with the protocol for a Bac-to-Bac baculovirus expression system (produced by Invitrogen), and Sf-9 cells were infected therewith. The cells were collected and sonicated, and then the membrane fraction was collected through centrifugation. Western blotting analysis with an anti-Flag antibody was performed for the membrane fraction to confirm expression, and the membrane fraction was used as a recombinant human MGAT2 enzyme solution.
Solutions of the compounds of the present invention in DMSO were each aliquoted into 0.2-μL portions in a 384-well polystyrene microplate produced by Corning Incorporated, and 5 μL of an enzyme solution prepared with an assay buffer (100 mmol/L phosphate buffer (pH 7.4) containing 2 mmol/L DTT) and 5 μL of a substrate solution (100 mmol/L phosphate buffer (pH 7.4), 30 μmol/L 2-Oleoylglycerol, 10 μmol/L Oleoyl-CoA) were added thereto, and the resultant was stirred and centrifuged, and incubated in a moist chamber at room temperature for 1 hour. After enzymatic reaction, 50 μL of a quenching solution (containing 0.2 μmol/L Diolein-d5, 0.4% formic acid, and 50% isopropanol) containing Internal Standard (IS) was added to terminate the reaction, and the resultant was sealed in a plate produced by Shimadzu GLC Ltd., and then stirred and centrifuged, and measurement was performed by using an electrospray ionization method with a RapidFire360 and Agilent 6550 Q-TOF mass spectrometer. Diolein as a reaction product (P) of 2-Oleoylglycerol as the substrate and an ammonium adduct ion of the IS were detected, and the peak intensity ratio, P/IS, was calculated from the peak heights to evaluate the inhibitory activity. Inhibitory activities with/without addition of enzyme were defined as Control (+)/Control (−), respectively, and the respective % inhibitions were defined as 0% inhibition and 100% inhibition. The inhibitory activity was calculated from formula below with TIBCO Spotfire (produced by TIBCO Software Inc.)
Inhibitory activity (%)=[1−{Sample−Control (−)}/{Control (+)−Control (−)}]*100 where Sample indicates a peak intensity ratio: P/IS, when the compound of the present invention was added.

Chain of recombinant human MGAT2 (Q3SYC2 whole entry): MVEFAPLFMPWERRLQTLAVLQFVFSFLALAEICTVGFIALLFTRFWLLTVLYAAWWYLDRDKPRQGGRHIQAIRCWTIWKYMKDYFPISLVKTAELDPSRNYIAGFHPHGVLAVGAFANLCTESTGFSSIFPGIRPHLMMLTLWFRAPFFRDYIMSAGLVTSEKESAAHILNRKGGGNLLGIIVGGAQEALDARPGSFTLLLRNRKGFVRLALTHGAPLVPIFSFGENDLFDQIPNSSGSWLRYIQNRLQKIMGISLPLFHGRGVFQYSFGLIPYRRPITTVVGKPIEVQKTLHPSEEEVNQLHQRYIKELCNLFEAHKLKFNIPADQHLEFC

Point of comparison: `CC(C)(O)c1ccc(-c2nn3c(c2NC(=O)CS(C)(=O)=O)C(=O)N[C@@]2(CCc4cc(OCC(F)(F)F)ccc42)C3)cc1` [Compound I-37], IC50 21.2 nM. Against it:
- C[S@@](=N)(=O)CC(=O)Nc1c(-c2ccc(F)c(Cl)c2)nn2c1C(=O)N[C@@]1(CCc3cc(OCC(F)(F)F)ccc31)C2 (single isomer, unassigned) [Compound I-72] — 3.3-fold lower, 6.43 nM
- C[S@](=N)(=O)CC(=O)Nc1c(-c2cc(F)c(F)c(F)c2)nn2c1C(=O)N[C@@]1(CCc3cc(OCC(F)(F)F)ccc31)C2 (single isomer, unassigned) [Compound I-105] — 12-fold lower, 1.71 nM
- C[S@@](=N)(=O)CC(=O)Nc1c(-c2cc(F)c(F)c(F)c2)nn2c1C(=O)N[C@@]1(CCc3cc(OCC(F)(F)F)ccc31)C2 (single isomer, unassigned) [Compound I-106] — 4.3-fold lower, 4.95 nM
- C[S@](=N)(=O)CC(=O)Nc1c(-c2ccc(F)c(Cl)c2)nn2c1C(=O)N[C@@]1(CCc3cc(OCC(F)(F)F)ccc31)C2 (single isomer, unassigned) [Compound I-107] — 18-fold lower, 1.19 nM
- CS(=O)(=O)CC(=O)Nc1c(-c2ccccc2)nn2c1C(=O)N[C@@]1(CCc3cc(OCC(F)(F)F)ccc31)C2 [Compound I-1] — 1.5-fold lower, 14 nM
- CS(=O)(=O)CC(=O)Nc1c(-c2ccccc2)nn2c1C(=O)N[C@]1(CCc3cc(OCC(F)(F)F)ccc31)C2 [Compound I-2] — 3.2-fold lower, 6.6 nM
- CS(=O)(=O)CC(=O)Nc1c(-c2ccc(C#N)cn2)nn2c1C(=O)N[C@]1(CCc3cc(OCC(F)(F)F)ccc31)C2 [Compound I-4] — 11-fold lower, 1.93 nM
- Cc1ccc(-c2nn3c(c2NC(=O)CS(C)(=O)=O)C(=O)N[C@]2(CCc4cc(OCC(F)(F)F)ccc42)C3)nc1 [Compound I-5] — 7.5-fold lower, 2.81 nM
- CS(=O)(=O)CC(=O)Nc1c(-c2ccc(C#N)cn2)nn2c1C(=O)NC1(CN(c3ccc(C(F)(F)F)cc3)C1)C2 [Compound I-7] — 7-fold lower, 3.04 nM
- N#Cc1ccc(-c2nn3c(c2NC(=O)c2ccno2)C(=O)N[C@]2(CCc4cc(OCC(F)(F)F)ccc42)C3)nc1 [Compound I-8] — 21-fold lower, 1.02 nM
- N#Cc1ccc(-c2nn3c(c2NC(=O)CC(F)(F)F)C(=O)N[C@]2(CCc4cc(OCC(F)(F)F)ccc42)C3)nc1 [Compound I-9] — within 1.5-fold, 22.5 nM
- N#Cc1ccc(-c2nn3c(c2NC(=O)C2CS(=O)(=O)C2)C(=O)N[C@]2(CCc4cc(OCC(F)(F)F)ccc42)C3)nc1 [Compound I-10] — 11-fold lower, 1.91 nM
- CNS(=O)(=O)CC(=O)Nc1c(-c2ccc(C#N)cn2)nn2c1C(=O)N[C@]1(CCc3cc(OCC(F)(F)F)ccc31)C2 [Compound I-11] — 20-fold lower, 1.08 nM
- N#Cc1ccc(-c2nn3c(c2NC(=O)COC(F)(F)F)C(=O)N[C@]2(CCc4cc(OCC(F)(F)F)ccc42)C3)nc1 [Compound I-12] — 2.2-fold lower, 9.48 nM
- N#Cc1ccc(-c2nn3c(c2NC(=O)C2CS(=O)(=O)C2)C(=O)N[C@@]2(CCc4cc(OCC(F)(F)F)ccc42)C3)nc1 [Compound I-15] — 8.3-fold lower, 2.56 nM
- CNS(=O)(=O)CC(=O)Nc1c(-c2ccc(C#N)cn2)nn2c1C(=O)N[C@@]1(CCc3cc(OCC(F)(F)F)ccc31)C2 [Compound I-16] — 15-fold lower, 1.44 nM
- N#Cc1ccc(-c2nn3c(c2NC(=O)COC(F)(F)F)C(=O)N[C@@]2(CCc4cc(OCC(F)(F)F)ccc42)C3)nc1 [Compound I-17] — 2.7-fold higher, 58 nM
- CS(=O)(=O)CC(=O)Nc1c(-c2ccccn2)nn2c1C(=O)N[C@]1(CCc3cc(OCC(F)(F)F)ccc31)C2 [Compound I-18] — 5.9-fold lower, 3.6 nM
- CS(=O)(=O)CC(=O)Nc1c(-c2ccccn2)nn2c1C(=O)N[C@@]1(CCc3cc(OCC(F)(F)F)ccc31)C2 [Compound I-19] — 4.1-fold lower, 5.19 nM
- Cc1cccc(-c2nn3c(c2NC(=O)CS(C)(=O)=O)C(=O)N[C@@]2(CCc4cc(OCC(F)(F)F)ccc42)C3)c1 [Compound I-21] — 6.5-fold lower, 3.27 nM
- Cc1ccccc1-c1nn2c(c1NC(=O)CS(C)(=O)=O)C(=O)N[C@@]1(CCc3cc(OCC(F)(F)F)ccc31)C2 [Compound I-22] — 4.4-fold higher, 93.5 nM
- CS(=O)(=O)CC(=O)Nc1c(-c2ccc(F)cc2)nn2c1C(=O)N[C@@]1(CCc3cc(OCC(F)(F)F)ccc31)C2 [Compound I-23] — 18-fold lower, 1.2 nM
- CS(=O)(=O)CC(=O)Nc1c(-c2ccc(C(F)F)cc2)nn2c1C(=O)N[C@@]1(CCc3cc(OCC(F)(F)F)ccc31)C2 [Compound I-24] — 15-fold lower, 1.37 nM
- CS(=O)(=O)CC(=O)Nc1c(-c2ccc(C(F)(F)F)cc2)nn2c1C(=O)N[C@@]1(CCc3cc(OCC(F)(F)F)ccc31)C2 [Compound I-25] — 16-fold lower, 1.33 nM
- COc1ccc(-c2nn3c(c2NC(=O)CS(C)(=O)=O)C(=O)N[C@@]2(CCc4cc(OCC(F)(F)F)ccc42)C3)cc1 [Compound I-26] — within 1.5-fold, 20.1 nM
- CS(=O)(=O)CC(=O)Nc1c(-c2ccc(OC(F)(F)F)cc2)nn2c1C(=O)N[C@@]1(CCc3cc(OCC(F)(F)F)ccc31)C2 [Compound I-27] — 3-fold lower, 7.01 nM
- CS(=O)(=O)CC(=O)Nc1c(-c2ccc(OC(F)F)cc2)nn2c1C(=O)N[C@@]1(CCc3cc(OCC(F)(F)F)ccc31)C2 [Compound I-28] — 5.4-fold lower, 3.89 nM
- CS(=O)(=O)CC(=O)Nc1c(-c2ccc(C3CC3)cc2)nn2c1C(=O)N[C@@]1(CCc3cc(OCC(F)(F)F)ccc31)C2 [Compound I-29] — 4.3-fold lower, 4.91 nM
- CS(=O)(=O)CC(=O)Nc1c(-c2ccc(OC3CC3)cc2)nn2c1C(=O)N[C@@]1(CCc3cc(OCC(F)(F)F)ccc31)C2 [Compound I-30] — 9.1-fold higher, 193 nM
- CS(=O)(=O)CC(=O)Nc1c(-c2ccc(C#N)cc2)nn2c1C(=O)N[C@@]1(CCc3cc(OCC(F)(F)F)ccc31)C2 [Compound I-31] — 9.5-fold lower, 2.23 nM
- Cc1cc(-c2nn3c(c2NC(=O)CS(C)(=O)=O)C(=O)N[C@@]2(CCc4cc(OCC(F)(F)F)ccc42)C3)ccc1F [Compound I-32] — 18-fold lower, 1.19 nM
- Cc1ccc(-c2nn3c(c2NC(=O)CS(C)(=O)=O)C(=O)N[C@@]2(CCc4cc(OCC(F)(F)F)ccc42)C3)cc1F [Compound I-34] — 16-fold lower, 1.36 nM
- Cc1cc(F)ccc1-c1nn2c(c1NC(=O)CS(C)(=O)=O)C(=O)N[C@@]1(CCc3cc(OCC(F)(F)F)ccc31)C2 [Compound I-35] — 1.5-fold higher, 32.2 nM
- CS(=O)(=O)CC(=O)Nc1c(-c2cc(F)c(F)c(F)c2)nn2c1C(=O)N[C@@]1(CCc3cc(OCC(F)(F)F)ccc31)C2 [Compound I-36] — 34-fold lower, 0.617 nM
- Cc1ccc(-c2nn3c(c2NC(=O)c2ccno2)C(=O)N[C@]2(CCc4cc(OCC(F)(F)F)ccc42)C3)nc1 [Compound I-38] — 4-fold lower, 5.31 nM
- Cc1ccc(-c2nn3c(c2NC(=O)CC(F)(F)F)C(=O)N[C@]2(CCc4cc(OCC(F)(F)F)ccc42)C3)nc1 [Compound I-39] — 12-fold higher, 248 nM
- Cc1ccc(-c2nn3c(c2NC(=O)C2CS(=O)(=O)C2)C(=O)N[C@]2(CCc4cc(OCC(F)(F)F)ccc42)C3)nc1 [Compound I-40] — 2.9-fold lower, 7.33 nM
- CNS(=O)(=O)CC(=O)Nc1c(-c2ccc(C)cn2)nn2c1C(=O)N[C@]1(CCc3cc(OCC(F)(F)F)ccc31)C2 [Compound I-41] — 20-fold lower, 1.04 nM
- Cc1ccc(-c2nn3c(c2NC(=O)c2ccno2)C(=O)N[C@@]2(CCc4cc(OCC(F)(F)F)ccc42)C3)nc1 [Compound I-42] — 1.9-fold lower, 11.3 nM
- Cc1ccc(-c2nn3c(c2NC(=O)CC(F)(F)F)C(=O)N[C@@]2(CCc4cc(OCC(F)(F)F)ccc42)C3)nc1 [Compound I-43] — 17-fold higher, 368 nM
- Cc1ccc(-c2nn3c(c2NC(=O)C2CS(=O)(=O)C2)C(=O)N[C@@]2(CCc4cc(OCC(F)(F)F)ccc42)C3)nc1 [Compound I-44] — 1.6-fold lower, 13.4 nM
- CNS(=O)(=O)CC(=O)Nc1c(-c2ccc(C)cn2)nn2c1C(=O)N[C@@]1(CCc3cc(OCC(F)(F)F)ccc31)C2 [Compound I-45] — 19-fold lower, 1.09 nM
- CCCCCc1nn2c(c1NC(=O)CS(C)(=O)=O)C(=O)N[C@@]1(CCc3cc(OCC(F)(F)F)ccc31)C2 [Compound I-47] — 7.8-fold lower, 2.73 nM
- CS(=O)(=O)CC(=O)Nc1c(-c2ccc(S(C)(=O)=O)cc2)nn2c1C(=O)N[C@@]1(CCc3cc(OCC(F)(F)F)ccc31)C2 [Compound I-48] — 20-fold higher, 419 nM
- CC(C)c1ccc(-c2nn3c(c2NC(=O)CS(C)(=O)=O)C(=O)N[C@@]2(CCc4cc(OCC(F)(F)F)ccc42)C3)cc1 [Compound I-49] — 4.4-fold lower, 4.79 nM
- CS(=O)(=O)CC(=O)Nc1c(-c2cc(F)cc(F)c2)nn2c1C(=O)N[C@@]1(CCc3cc(OCC(F)(F)F)ccc31)C2 [Compound I-50] — 8.4-fold lower, 2.53 nM
- CS(=O)(=O)CC(=O)Nc1c(-c2ccc(C#N)c(F)c2)nn2c1C(=O)N[C@@]1(CCc3cc(OCC(F)(F)F)ccc31)C2 [Compound I-51] — 16-fold lower, 1.32 nM

Same assay, conditions: concentration exhibiting 50% enzyme inhibition; recombinant human MGAT2, 2-Oleoylglycerol/Oleoyl-CoA; listed as 1-62

Work on `CS(=O)(=O)CC(=O)Nc1c(CCCC(F)(F)F)nn2c1C(=O)NC1(CCc3cc(OCC(F)(F)F)ccc31)C2` (single isomer, unassigned) [Compound I-62] yielded an IC50 of 1.39 nM.

Same assay, conditions: concentration exhibiting 50% enzyme inhibition; recombinant human MGAT2, 2-Oleoylglycerol/Oleoyl-CoA; listed as 1-63

For `CS(=O)(=O)CC(=O)Nc1c(CCCC(F)(F)F)nn2c1C(=O)NC1(CCc3cc(OCC(F)(F)F)ccc31)C2` (single isomer, unassigned) [Compound I-63], the IC50 was 1.24 nM.

— patent US12227509B2, “Dihydropyrazolopyrazinone derivative having MGAT2 inhibitory activity” (Shionogi & Co., Ltd., priority 2019, dated 2025)
